# Patent EP0354818A2, “Pharmaceutical compositions containing polyaromatic compounds as active ingredient and their use” (HADASSAH MEDICAL ORGANIZATION, priority 1988, dated 1990)
# Key:
# [1] = molecular target: T1, ESb mouse lymphoma heparanase (Mus musculus, UniProt Q6YGZ1); assay: Inhibition of heparanase degradation of 35S labelled ECM; format: biochemical; details: compound 10 µgr/ml, 24 hrs incubation; for Total low-mol-wt. HS fragments released by heparanase (cpm): control 17,756 cpm
# T1 construct: endogenous in cells; host or cells: ESb mouse lymphoma cells
# T1 sequence (Q6YGZ1 150-535 limits assumed): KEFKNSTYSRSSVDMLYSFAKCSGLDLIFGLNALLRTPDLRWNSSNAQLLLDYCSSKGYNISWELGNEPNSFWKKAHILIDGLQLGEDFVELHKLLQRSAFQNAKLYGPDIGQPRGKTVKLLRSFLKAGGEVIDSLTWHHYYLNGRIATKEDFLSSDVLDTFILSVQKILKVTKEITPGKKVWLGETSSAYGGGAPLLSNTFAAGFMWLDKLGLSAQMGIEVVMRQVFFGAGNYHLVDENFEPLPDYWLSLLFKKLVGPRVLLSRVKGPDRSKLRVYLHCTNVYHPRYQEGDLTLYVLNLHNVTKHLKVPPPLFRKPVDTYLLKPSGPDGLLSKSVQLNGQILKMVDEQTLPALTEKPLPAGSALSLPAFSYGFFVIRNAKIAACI
# T1 sequence (Q6YGZ1 28-101 limits assumed): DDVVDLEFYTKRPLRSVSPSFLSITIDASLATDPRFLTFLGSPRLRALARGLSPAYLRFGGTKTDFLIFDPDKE
# Protocol: The ability of several of the above mentioned compounds to inhibit lymphoma-cell derived heparanase was tested in the assay system described by Vlodavsky et. al. (Cancer Research. 43: 2704-2711 (1983). ³⁵S labelled ECM was incubated for 24 hrs with ESb mouse lymphoma heparanase in the presence of 10 ugr ml of the indicated compounds. Degradation of the sulfated glycosaminoglycan was followed by gel filtration of the supernatants. Heparanase activity is expressed as the total amount of labelled low-molecular-weight fragments released from the ECM substrate. The results are summarized in Table III.
# fresh human blood = assay: Anticoagulant effect: partial thromboplastin time (PTT) in blood samples; details: citrated human blood, after addition of Ca++, control 30.5
# Protocol: 0.25 ml of the indicated concentration of the drug (x10, diluted in saline) were added to 2.25 ml of fresh human blood, collected in the presence of citrate. PTT was measured following the addition of Ca⁺⁺.
# LPL = molecular target: T2, LPL (Rattus norvegicus, UniProt Q06000); assay: Plasma levels of LPL after oral administration to rats; format: in vivo; details: 1ml of 10%-20% solution
# T2 construct: from tissue; host or cells: rat plasma (in vivo, after oral aluminon)
# T2 sequence (Q06000 28-474): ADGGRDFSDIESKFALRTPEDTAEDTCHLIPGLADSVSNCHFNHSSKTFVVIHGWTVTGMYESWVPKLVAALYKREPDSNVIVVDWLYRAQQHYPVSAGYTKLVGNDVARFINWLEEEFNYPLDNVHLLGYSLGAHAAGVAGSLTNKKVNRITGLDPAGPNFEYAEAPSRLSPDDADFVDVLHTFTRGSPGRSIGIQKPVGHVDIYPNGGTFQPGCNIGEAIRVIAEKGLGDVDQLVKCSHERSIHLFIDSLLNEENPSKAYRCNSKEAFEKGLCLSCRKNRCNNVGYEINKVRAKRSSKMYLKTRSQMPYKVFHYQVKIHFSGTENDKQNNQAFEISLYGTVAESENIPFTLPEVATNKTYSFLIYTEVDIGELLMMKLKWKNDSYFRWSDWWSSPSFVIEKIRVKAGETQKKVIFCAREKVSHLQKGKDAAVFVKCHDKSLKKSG
# Excerpt: Moreover, since aluminon can be absorbed through the gastrointestinal tract, it can be used as an orally administrable anticoagulant (as opposed to heparin which has to be given by injection).
# lipoprotein lipase (LPL) = molecular target: T3, lipoprotein lipase (LPL) (Rattus norvegicus, UniProt Q06000); assay: LPL activity in cultured heart cells and medium; format: cell-based; details: 24 hrs incubation of heart cells; for LPL activity: total: cells plus medium; for % increase in the total: versus 0 M
# T3 construct: endogenous in cells; host or cells: F1 heart cell cultures from newborn rat hearts (mainly non-beating mesenchymal cells)
# T3 sequence (Q06000 28-474): T2 sequence (Q06000 28-474)
# Protocol: F₁ heart cell cultures were prepared from newborn rat hearts as previously described (Chajek, T. et al, Biochem. Biophys. Acta 528, 456-474(1978)). They consisted mainly of non-beating mesenchymal cells and were used 8-12 days after their isolation.
# The enzyme activity was determined on aliquots of medium and of homogenates of cells which had been released from the petri dish with a rubber policeman in 1 ml of 0.025 M NH₃/NH₄C1 buffer (pH 8.1) containing 1 unit/ml of heparin. The assay system consisted of 0.1 ml of medium or 0.1 ml of cell homogenate ([…]) and 0.1 ml of substrate containing labeled triolein, prepared according to the method of Nilsson-Ehle and Schotz, (J. Lipid Res. 17, 536-541 (1976)). Incubations were carried out at 37°C for 45 min. The reaction was stopped by the addition of methanol/chloroform/heptane (1,4:1.25:1, v/v) and the extraction of fatty acids was performed according to the method of Belfrage and Vaughan (J. Lipid Res. 10, 341-344 (1969), as modified by Nilsson-Ehle and Schotz. Enzyme activity was calculated according to the formula of Nilsson-Ehle and Schotz.
compound,measurement,setting,value
O=C(O)C1=CC(=C(c2ccc(O)c(C(=O)O)c2)c2ccc(O)c(C(=O)O)c2)C=CC1=O [Aluminon],Total low-mol-wt. HS fragments released by heparanase (cpm),[1],"3,822 cpm"
same,PTT,fresh human blood; Aluminon final conc. 0.01 mg/ml,30.5 s
same,PTT,fresh human blood; Aluminon final conc. 0.1 mg/ml,190 s
same,PTT,fresh human blood; Aluminon final conc. 1 mg/ml,>300 s
same,plasma levels of LPL,LPL,elevated by about an order of magnitude
Cc1cc(-c2ccc(/N=N/c3ccc4c(S(=O)(=O)O)cc(S(=O)(=O)O)c(N)c4c3O)c(C)c2)ccc1/N=N/c1ccc2c(S(=O)(=O)O)cc(S(=O)(=O)O)c(N)c2c1O [Evan's Blue],Total low-mol-wt. HS fragments released by heparanase (cpm),[1],"6,986 cpm"
same,LPL activity: total,lipoprotein lipase (LPL); Evan's Blue 10⁻³ M,7749 m mole FFA/h/dish
same,% increase in the total,lipoprotein lipase (LPL); Evan's Blue 10⁻³ M,+139.4%
same,LPL activity: total,lipoprotein lipase (LPL); Evan's Blue 10⁻⁴ M,5230 m mole FFA/h/dish
same,% increase in the total,lipoprotein lipase (LPL); Evan's Blue 10⁻⁴ M,+61.6%
same,LPL activity: total,lipoprotein lipase (LPL); Evan's Blue 10⁻⁵ M,4288 m mole FFA/h/dish
same,% increase in the total,lipoprotein lipase (LPL); Evan's Blue 10⁻⁵ M,+32.5%
CCN(Cc1cccc(S(=O)(=O)O)c1)c1ccc(C(=C2C=CC(=[N+](CC)Cc3cccc(S(=O)(=O)O)c3)C=C2)c2ccc(O)cc2S(=O)(=O)[O-])cc1 [Fast Green],% Inhibition,[1],32%
O=S(=O)(O)c1ccc(N=C2C=CC(=C(c3ccc(Nc4ccc(S(=O)(=O)O)cc4)cc3)c3ccc(Nc4ccc(S(=O)(=O)O)cc4)cc3)C=C2)cc1 [Methyl Blue],% Inhibition,[1],23%
same,Total low-mol-wt. HS fragments released by heparanase (cpm),[1],"13,676 cpm"
